From ChEMBL document CHEMBL5532761, “Rosavin improves insulin resistance and alleviates hepatic and kidney damage via modulating the cGAS-STING pathway and autophagy signaling in HFD/STZ-induced T2DM animals” (2024)
Activity calls are given as the source filed them. The calls are words filed in the database; no cut-off is given here.

Key:
Rattus norvegicus [1] = experiment: (§1) Antidiabetic activity in high fat diet-STZ induced diabetic Wistar rat model assessed as glucose level in serum at 10 mg/kg, ip pretreated with high fat diet for 4 weeks followed by 8 hrs fasting after STZ administration and measured 4 weeks after compound treatment (reference value: 527.7 +/- 49.1 mg%); type: functional
Rattus norvegicus [2] = experiment: as §1, with “insulin” for “glucose”, “treatment by ELISA” for “treatment”, “16.53” for “527.7”, “1.14 microU/ml)” for “49.1 mg%)”; type: functional
Rattus norvegicus [3] = experiment: as §1, with “HDL-cholesterol” for “glucose”, “level” for “level in serum”, “0.688” for “527.7”, “0.288 mmol/L)” for “49.1 mg%)”; type: functional
Rattus norvegicus [4] = experiment: as §1, with “blood urea nitrogen” for “glucose”, “level” for “level in serum”, “466.4” for “527.7”, “51.16” for “49.1”; type: functional
Rattus norvegicus [5] = experiment: (§2) Antidiabetic activity in high fat diet-STZ induced diabetic Wistar rat model assessed as ALT level at 10 mg/kg, ip pretreated with high fat diet for 4 weeks followed by 8 hrs fasting after STZ administration and measured 4 weeks after compound treatment (reference value: 152.1 +/- 23.64 IU/L); type: functional
Rattus norvegicus [6] = experiment: as §1, with “20” for “10”; type: functional
Rattus norvegicus [7] = experiment: as §1, with “insulin” for “glucose”, “20” for “10”, “treatment by ELISA” for “treatment”, “16.53” for “527.7”, “1.14 microU/ml)” for “49.1 mg%)”; type: functional
Rattus norvegicus [8] = experiment: as §2, with “cholesterol” for “ALT”, “20” for “10”, “10.39” for “152.1”, “1.3 mmol/L)” for “23.64 IU/L)”; type: functional
Rattus norvegicus [9] = experiment: (§3) Antidiabetic activity in high fat diet-STZ induced diabetic Wistar rat model assessed as creatinine level at 20 mg/kg, ip pretreated with high fat diet for 4 weeks followed by 8 hrs fasting after STZ administration and measured 4 weeks after compound treatment (reference value: 3.88 +/- 0.502 mg%); type: functional
Rattus norvegicus [10] = experiment: as §1, with “30” for “10”; type: functional
Rattus norvegicus [11] = experiment: as §2, with “HDL-cholesterol” for “ALT”, “30” for “10”, “0.688” for “152.1”, “0.288 mmol/L)” for “23.64 IU/L)”; type: functional
Rattus norvegicus [12] = experiment: as §2, with “LDL-cholesterol” for “ALT”, “30” for “10”, “6.54” for “152.1”, “0.918 mmol/L)” for “23.64 IU/L)”; type: functional
Rattus norvegicus [13] = experiment: Antidiabetic activity in high fat diet-STZ induced diabetic Wistar rat model assessed as urine albumin to creatinine ratio at 30 mg/kg, ip pretreated with high fat diet for 4 weeks followed by 8 hrs fasting after STZ administration and measured 4 weeks after compound treatment (reference value: 87.13 +/- 9.75 mg/g); type: functional
Rattus norvegicus [14] = experiment: (§4) Antidiabetic activity in high fat diet-STZ induced diabetic Wistar rat model assessed as mean area percentage of LC3B in liver at 20 mg/kg, ip pretreated with high fat diet for 4 weeks followed by 8 hrs fasting after STZ administration and measured after 4 weeks of compound treatment by immunohistochemistry based microscopic analysis (reference value: 0.742 +/- 0.143 %); type: functional
Rattus norvegicus [15] = experiment: as §4, with “30” for “20”; type: functional
Rattus norvegicus [16] = experiment: as §4, with “TNF alpha” for “LC3B”, “30” for “20”, “18.28” for “0.742”, “1.31” for “0.143”; type: functional
Rattus norvegicus [17] = experiment: as §4, with “kidney” for “liver”, “10” for “20”, “2.47” for “0.742”, “0.356” for “0.143”; type: functional
Rattus norvegicus [18] = experiment: as §4, with “kidney” for “liver”, “2.47” for “0.742”, “0.356” for “0.143”; type: functional
Rattus norvegicus [19] = experiment: as §4, with “kidney” for “liver”, “30” for “20”, “2.47” for “0.742”, “0.356” for “0.143”; type: functional
Rattus norvegicus [20] = experiment: as §4, with “TNFalpha” for “LC3B”, “kidney” for “liver”, “10” for “20”, “24” for “0.742”, “1.5” for “0.143”; type: functional
Rattus norvegicus [21] = experiment: as §4, with “TNFalpha” for “LC3B”, “kidney” for “liver”, “30” for “20”, “24” for “0.742”, “1.5” for “0.143”; type: functional
Rattus norvegicus [22] = experiment: (§5) Antidiabetic activity in ip dosed high fat diet-STZ induced diabetic Wistar rat model assessed as reduction of STING mRNA expression in kidney pretreated with high fat diet for 4 weeks followed by 8 hrs fasting after STZ administration and measured 4 weeks after compound treatment by RT-qPCR analysis; type: functional, organism-based; conditions: dose 10-30 mg/kg
Rattus norvegicus [23] = experiment: as §5, with “adipose tissue” for “kidney”; type: functional, organism-based; conditions: dose 10-30 mg/kg
Rattus norvegicus [24] = experiment: as §5, with “DDX58” for “STING”; type: functional, organism-based; conditions: dose 10-30 mg/kg
Rattus norvegicus [25] = experiment: as §5, with “DDX58” for “STING”, “adipose tissue” for “kidney”; type: functional, organism-based; conditions: dose 10-30 mg/kg
Rattus norvegicus [26] = experiment: as §5, with “in” for “in ip dosed”, “increase in AC074117.2 lncRNA” for “reduction of STING mRNA”, “liver at 10 to 30 mg/kg, ip” for “kidney”; type: functional, organism-based; conditions: dose 10-30 mg/kg
Rattus norvegicus [27] = experiment: as §3, with “intact hepatocytes by measuring reduction in persistent fatty changes” for “creatinine level”, “by hematoxylin and eosin staining based microscopic analysis” for “(reference value: 3.88 +/- 0.502 mg%)”; type: functional, organism-based
Rattus norvegicus [28] = experiment: (§6) Antidiabetic activity in high fat diet-STZ induced diabetic Wistar rat model assessed as reduction in luminal exfoliation of epithelial cells in kidney at 30 mg/kg, ip pretreated with high fat diet for 4 weeks followed by 8 hrs fasting after STZ administration and measured 4 weeks after compound treatment by hematoxylin and eosin staining based microscopic analysis; type: functional, organism-based
Rattus norvegicus [29] = experiment: as §6, with “inflammatory infiltrates” for “luminal exfoliation of epithelial cells”; type: functional, organism-based
Rattus norvegicus [30] = experiment: as §6, with “adipocyte diameter” for “luminal exfoliation of epithelial cells”, “adipose tissue” for “kidney”, “10” for “30”; type: functional, organism-based
Rattus norvegicus [31] = experiment: as §6, with “protection against vacuolar changes throughout hepatic lobules” for “reduction in luminal exfoliation of epithelial cells in kidney”, “10” for “30”; type: functional, organism-based
Rattus norvegicus [32] = experiment: as §6, with “protection against replacement” for “reduction in luminal exfoliation”, “hepatocellular necrosis with inflammatory” for “epithelial”, “cells” for “cells in kidney”, “10” for “30”; type: functional, organism-based
Rattus norvegicus [33] = experiment: as §6, with “focal necrotic lesions” for “luminal exfoliation of epithelial cells”, “liver” for “kidney”, “20” for “30”; type: functional, organism-based
Rattus norvegicus [34] = experiment: Antidiabetic activity in high fat diet-STZ induced diabetic Wistar rat model assessed as preserved integrity of tubular epithelium in kidney at 20 to 30 mg/kg, ip pretreated with high fat diet for 4 weeks followed by 8 hrs fasting after STZ administration and measured 4 weeks after compound treatment by hematoxylin and eosin staining based microscopic analysis; type: functional, organism-based; conditions: dose 20-30 mg/kg

O[C@@H]1[C@@H](O)[C@H](OC/C=C/c2ccccc2)O[C@H](CO[C@@H]2OC[C@H](O)[C@H](O)[C@H]2O)[C@H]1O showed an Activity (Rattus norvegicus [1]) of 227.7 mg%, an Activity (Rattus norvegicus [2]) of 13.88 uU/ml and an Activity (Rattus norvegicus [3]) of 0.916 mmol/L. For the same compound, the Activity (Rattus norvegicus [4]) was 254.7 mg%, the Activity (Rattus norvegicus [5]) was 79.5 IU/L and the Activity (Rattus norvegicus [6]) was 174.8 mg%. The Activity (Rattus norvegicus [7]) was 6.4 uU/ml, the Activity (Rattus norvegicus [8]) was 4.27 mmol/L and the Activity (Rattus norvegicus [9]) was 1.51 mg%. The Activity (Rattus norvegicus [10]) was 123.9 mg%, the Activity (Rattus norvegicus [11]) was 1.39 mmol/L and the Activity (Rattus norvegicus [12]) was 1.3 mmol/L. For the same compound, the Activity (Rattus norvegicus [13]) was 20.88 mg/g, the Activity (Rattus norvegicus [14]) was 2.35% and the Activity (Rattus norvegicus [15]) was 13.3%. It also gave an Activity (Rattus norvegicus [16]) of 3.52%, an Activity (Rattus norvegicus [17]) of 8.6% and an Activity (Rattus norvegicus [18]) of 11.23%. It also gave an Activity (Rattus norvegicus [19]) of 12.7%, an Activity (Rattus norvegicus [20]) of 16.98% and an Activity (Rattus norvegicus [21]) of 3.98%. For the same compound, the Activity (Rattus norvegicus [22]) was “Dose-Dependent Effect”, the Activity (Rattus norvegicus [23]) was “Dose-Dependent Effect” and the Activity (Rattus norvegicus [24]) was “Dose-Dependent Effect”. The Activity (Rattus norvegicus [25]) was “Dose-Dependent Effect”, the Activity (Rattus norvegicus [26]) was “Active” and the Activity (Rattus norvegicus [27]) was “Active”. The Activity (Rattus norvegicus [28]) was “Active”, the Activity (Rattus norvegicus [29]) was “Active” and the Activity (Rattus norvegicus [30]) was “inactive”. The Activity (Rattus norvegicus [31]) was “inactive”, the Activity (Rattus norvegicus [32]) was “inactive” and the Activity (Rattus norvegicus [33]) was “Active”. For the same compound, the Activity (Rattus norvegicus [34]) was “Active”.
